Legend:
Type in all cases: functional
[1] = system: SR; test: Cytotoxicity against human SR cells assessed as growth inhibition after 48 hrs by sulforhodamine B assay; details: for CC50: read-out: LC50 (the source's name)
[2] = system: NCI-H460; test: Cytotoxicity against human NCI-H460 cells assessed as growth inhibition after 48 hrs by sulforhodamine B assay; details: NCI-H460, 48 h
[3] = system: NCI-H522; test: Cytotoxicity against human NCI-H522 cells assessed as growth inhibition after 48 hrs by sulforhodamine B assay; details: NCI-H522, 48 h
[4] = system: COLO 205; test: Cytotoxicity against human COLO205 cells assessed as growth inhibition after 48 hrs by sulforhodamine B assay; details: COLO 205, 48 h
[5] = system: SW-620; test: Cytotoxicity against human SW620 cells assessed as growth inhibition after 48 hrs by sulforhodamine B assay; details: SW-620, 48 h
[6] = system: SF-539; test: Cytotoxicity against human SF539 cells assessed as growth inhibition after 48 hrs by sulforhodamine B assay; details: SF-539, 48 h
[7] = system: LOX IMVI; test: Cytotoxicity against human LOXIMVI cells assessed as growth inhibition after 48 hrs by sulforhodamine B assay
[8] = system: M14; test: Cytotoxicity against human M14 cells assessed as growth inhibition after 48 hrs by sulforhodamine B assay; details: M14, 48 h; for CC50: read-out: LC50 (the source's name)
[9] = system: MDA-MB-435; test: Cytotoxicity against human MDA-MB-435 cells assessed as growth inhibition after 48 hrs by sulforhodamine B assay; details: MDA-MB-435, 48 h
[10] = system: SK-MEL-5; test: Cytotoxicity against human SK-MEL-5 cells assessed as growth inhibition after 48 hrs by sulforhodamine B assay; details: SK-MEL-5, 48 h; for CC50: read-out: LC50 (the source's name)
[11] = system: UACC-257; test: Cytotoxicity against human UACC257 cells assessed as growth inhibition after 48 hrs by sulforhodamine B assay; details: UACC-257, 48 h
[12] = system: UACC-62; test: Cytotoxicity against human UACC62 cells assessed as growth inhibition after 48 hrs by sulforhodamine B assay; details: UACC-62, 48 h
[13] = system: OVCAR-4; test: Cytotoxicity against human OVCAR4 cells assessed as growth inhibition after 48 hrs by sulforhodamine B assay; details: OVCAR-4, 48 h
[14] = system: OVCAR-8; test: Cytotoxicity against human OVCAR8 cells assessed as growth inhibition after 48 hrs by sulforhodamine B assay; details: OVCAR-8, 48 h
[15] = system: 786-0; test: Cytotoxicity against human 786-0 cells assessed as growth inhibition after 48 hrs by sulforhodamine B assay; details: 786-0, 48 h
[16] = system: CAKI-1; test: Cytotoxicity against human Caki1 cells assessed as growth inhibition after 48 hrs by sulforhodamine B assay; details: CAKI-1, 48 h; for CC50: read-out: LC50 (the source's name)
[17] = system: RXF 393; test: Cytotoxicity against human RXF393 cells assessed as growth inhibition after 48 hrs by sulforhodamine B assay; details: RXF 393, 48 h
[18] = system: TK-10; test: Cytotoxicity against human TK10 cells assessed as growth inhibition after 48 hrs by sulforhodamine B assay; details: TK-10, 48 h
[19] = system: UO-31; test: Cytotoxicity against human UO31 cells assessed as growth inhibition after 48 hrs by sulforhodamine B assay; details: UO-31, 48 h
[20] = system: DU-145; test: Cytotoxicity against human DU145 cells assessed as growth inhibition after 48 hrs by sulforhodamine B assay; details: DU-145, 48 h
[21] = system: MDA-MB-231; test: Cytotoxicity against human MDA-MB-231 cells assessed as growth inhibition after 48 hrs by sulforhodamine B assay; details: MDA-MB-231, 48 h
[22] = system: T47D; test: Cytotoxicity against human T47D cells assessed as growth inhibition after 48 hrs by sulforhodamine B assay
[23] = system: MDA-MB-468; test: Cytotoxicity against human MDA-MB-468 cells assessed as growth inhibition after 48 hrs by sulforhodamine B assay; details: MDA-MB-468, 48 h; for CC50: read-out: LC50 (the source's name)
[24] = system: SNB-75; test: Cytotoxicity against human SNB75 cells assessed as growth inhibition after 48 hrs by sulforhodamine B assay; details: SNB-75, 48 h

O=C1NC2C(CC(O)C(O)C2O)c2cc3c(c(O)c21)OCCO3 (racemic)
GI50 [1]: 0.314 µM | TGI [1]: 36.8 µM | CC50 [1]: > 100 µM | GI50 [2]: 0.154 µM | LC50 [2]: > 100 µM | TGI [2]: 1.05 µM | GI50 [3]: 0.147 µM | LC50 [3]: 7.62 µM | TGI [3]: 0.73 µM | GI50 [4]: 0.176 µM | TGI [4]: 0.41 µM | GI50 [5]: 0.222 µM | LC50 [5]: > 100 µM | TGI [5]: 1.22 µM | GI50 [6]: 0.228 µM | LC50 [6]: 12.7 µM | TGI [6]: 0.74 µM | GI50 [7]: 0.18 µM | LC50 (concentration killing 50% of cells) [7]: 3.58 µM | TGI [7]: 0.53 µM | GI50 [8]: 0.23 µM | TGI [8]: 1.19 µM | CC50 [8]: 5.53 µM | GI50 [9]: 0.265 µM | LC50 (concentration killing 50% of cells) [9]: 13.3 µM | TGI [9]: 1.17 µM | GI50 [10]: 0.181 µM | TGI [10]: 0.47 µM | CC50 [10]: 2.22 µM | GI50 [11]: 0.289 µM | LC50 [11]: > 100 µM | TGI [11]: 1.47 µM | GI50 [12]: 0.261 µM | LC50 [12]: 13 µM | TGI [12]: 1.38 µM | GI50 [13]: 0.209 µM | LC50 (concentration causing 50% net cell kill) [13]: > 100 µM | TGI [13]: 0.82 µM | GI50 [14]: 0.311 µM | LC50 [14]: > 100 µM | TGI [14]: 5.89 µM | GI50 [15]: 0.254 µM | LC50 (concentration killing 50% of cells) [15]: > 100 µM | TGI [15]: 1.61 µM | GI50 [16]: 0.586 µM | TGI [16]: 5.47 µM | CC50 [16]: > 100 µM | GI50 [17]: 0.179 µM | LC50 (50% lethal concentration) [17]: 6.3 µM | TGI [17]: 0.71 µM | GI50 [18]: 0.563 µM | LC50 [18]: > 100 µM | TGI [18]: 3.87 µM | GI50 [19]: 0.316 µM | LC50 [19]: > 100 µM | TGI [19]: 2.46 µM | GI50 [20]: 0.239 µM | LC50 [20]: > 100 µM | TGI [20]: 0.86 µM | GI50 [21]: 0.232 µM | LC50 [21]: 13.2 µM | TGI [21]: 1.16 µM | GI50 [22]: 0.143 µM | LC50 (concentration killing 50% of cells) [22]: > 100 µM | TGI [22]: 0.9 µM | GI50 [23]: 0.0681 µM | TGI [23]: 0.36 µM | CC50 [23]: 2.78 µM

O=C1NC2C(CC(O)C(O)C2O)c2cc3c(c(O)c21)OCO3 (racemic)
GI50 [1]: 0.0522 µM | TGI [1]: > 100 µM | CC50 [1]: > 100 µM | GI50 [2]: 0.0433 µM | TGI [2]: 0.49 µM | GI50 [3]: 0.0467 µM | TGI [3]: 0.31 µM | GI50 [4]: 0.0505 µM | TGI [4]: 0.21 µM | GI50 [5]: 0.0545 µM | TGI [5]: 0.81 µM | GI50 [6]: 0.0819 µM | TGI [6]: 0.46 µM | GI50 [24]: 0.0754 µM | TGI [24]: 0.62 µM | CC50 ([24]; read-out: LC50 (the source's name)): 13.2 µM | GI50 [7]: 0.0336 µM | TGI [7]: 0.17 µM | GI50 [8]: 0.0525 µM | TGI [8]: 0.22 µM | CC50 [8]: 0.7 µM | GI50 [9]: 0.0681 µM | TGI [9]: 0.51 µM | GI50 [10]: 0.0719 µM | TGI [10]: 0.36 µM | CC50 [10]: 2.22 µM | GI50 [11]: 0.0687 µM | TGI [11]: 0.54 µM | GI50 [12]: 0.136 µM | TGI [12]: 0.63 µM | GI50 [13]: 0.0556 µM | TGI [13]: 0.48 µM | GI50 [14]: 0.0576 µM | TGI [14]: 1.06 µM | GI50 [15]: 0.151 µM | TGI [15]: 1.29 µM | GI50 [16]: 0.0913 µM | TGI [16]: 0.69 µM | CC50 [16]: > 100 µM | GI50 [17]: 0.118 µM | TGI [17]: 0.51 µM | GI50 [18]: 0.221 µM | TGI [18]: 1.68 µM | GI50 [19]: 0.1 µM | TGI [19]: 1.09 µM | GI50 [20]: 0.0567 µM | TGI [20]: 0.62 µM | GI50 [21]: 0.1 µM | TGI [21]: 0.88 µM | GI50 [22]: 0.0529 µM | TGI [22]: 0.67 µM | GI50 [23]: 0.032 µM | TGI [23]: 0.19 µM | CC50 [23]: 6.59 µM

— ChEMBL document CHEMBL4346705, “(±)-trans-Dihydronarciclasine and (±)-trans-dihydrolycoricidine analogues modified in their ring A: Evaluation of their anticancer activity and a SAR study” (2019)
